According to PMC6978363, “Chaperone mediated detection of small molecule target binding in cells” (Nature Communications, 2020):

Columns and labels:
Test in all cases: biochemical
Settings in all cases: read-out: % Inhibition (at 10mM)
ACVR1B = ACVR1B (Homo sapiens, UniProt P36896)
CDK2/cyclinA = CDK2/cyclinA (Homo sapiens, UniProt P24941)
CDK5/p35 = target: T1, CDK5/p35 (Homo sapiens, UniProt Q00535)
T1 construct: p35

CDKL5 = CDKL5 (Homo sapiens, UniProt O76039)
CK1_gamma2 = target: T2, CK1_gamma2 (Homo sapiens, UniProt P78368)
T2 construct: gene CSNK1G2

CK2_alpha2 = target: T3, CK2_alpha2 (Homo sapiens, UniProt P19784)
T3 construct: gene CSNK2A2

CSF1R = CSF1R (Homo sapiens, UniProt P07333)
DNA-PK = target: T4, DNA-PK (Homo sapiens, UniProt P78527)
T4 construct: gene PRKDC

DYRK1A = DYRK1A (Homo sapiens, UniProt Q13627)
EphB2 = EphB2 (Homo sapiens, UniProt P29323)
FAK = target: T5, FAK (Homo sapiens, UniProt Q05397)
T5 construct: gene PTK2
T5 sequence (Q05397 whole entry): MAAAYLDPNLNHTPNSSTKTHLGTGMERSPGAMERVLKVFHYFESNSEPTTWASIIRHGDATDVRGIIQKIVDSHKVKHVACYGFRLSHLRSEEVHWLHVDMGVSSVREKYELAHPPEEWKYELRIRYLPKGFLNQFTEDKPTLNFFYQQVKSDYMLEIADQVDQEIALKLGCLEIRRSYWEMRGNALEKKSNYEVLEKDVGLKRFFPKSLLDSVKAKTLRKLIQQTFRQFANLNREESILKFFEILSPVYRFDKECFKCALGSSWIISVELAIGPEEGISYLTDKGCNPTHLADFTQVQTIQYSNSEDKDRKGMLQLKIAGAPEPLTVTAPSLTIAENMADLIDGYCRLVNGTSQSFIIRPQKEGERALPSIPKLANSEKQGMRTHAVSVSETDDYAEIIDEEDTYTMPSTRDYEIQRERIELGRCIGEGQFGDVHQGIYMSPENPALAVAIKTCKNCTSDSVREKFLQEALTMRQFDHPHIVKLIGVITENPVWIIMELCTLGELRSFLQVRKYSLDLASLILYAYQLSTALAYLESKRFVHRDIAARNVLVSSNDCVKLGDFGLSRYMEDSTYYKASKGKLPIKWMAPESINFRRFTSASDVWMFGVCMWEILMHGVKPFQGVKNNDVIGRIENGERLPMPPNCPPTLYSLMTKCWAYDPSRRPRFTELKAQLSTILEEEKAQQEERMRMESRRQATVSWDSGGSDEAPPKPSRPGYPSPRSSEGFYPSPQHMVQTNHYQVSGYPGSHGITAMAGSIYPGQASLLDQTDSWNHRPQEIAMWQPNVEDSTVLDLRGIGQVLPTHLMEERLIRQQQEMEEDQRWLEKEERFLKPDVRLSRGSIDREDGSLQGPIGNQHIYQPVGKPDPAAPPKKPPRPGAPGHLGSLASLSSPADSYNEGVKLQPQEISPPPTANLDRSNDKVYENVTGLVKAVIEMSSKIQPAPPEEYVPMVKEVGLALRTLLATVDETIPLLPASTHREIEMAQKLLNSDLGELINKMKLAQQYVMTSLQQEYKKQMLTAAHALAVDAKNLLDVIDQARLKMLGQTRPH

FAK2 = target: T6, FAK2 (Homo sapiens, UniProt Q14289)
T6 construct: gene PTK2B

FGFR1 = FGFR1 (Homo sapiens, UniProt P11362)
FGFR4 = FGFR4 (Homo sapiens, UniProt P22455)
Fer = Fer (Homo sapiens, UniProt P16591)
GCK = target: T7, GCK (Homo sapiens, UniProt Q12851)
T7 construct: gene MAP4K2

IGF1R = IGF1R (Homo sapiens, UniProt P08069)
JAK1 = JAK1 (Homo sapiens, UniProt P23458)
Chain of JAK1 (P23458 whole entry): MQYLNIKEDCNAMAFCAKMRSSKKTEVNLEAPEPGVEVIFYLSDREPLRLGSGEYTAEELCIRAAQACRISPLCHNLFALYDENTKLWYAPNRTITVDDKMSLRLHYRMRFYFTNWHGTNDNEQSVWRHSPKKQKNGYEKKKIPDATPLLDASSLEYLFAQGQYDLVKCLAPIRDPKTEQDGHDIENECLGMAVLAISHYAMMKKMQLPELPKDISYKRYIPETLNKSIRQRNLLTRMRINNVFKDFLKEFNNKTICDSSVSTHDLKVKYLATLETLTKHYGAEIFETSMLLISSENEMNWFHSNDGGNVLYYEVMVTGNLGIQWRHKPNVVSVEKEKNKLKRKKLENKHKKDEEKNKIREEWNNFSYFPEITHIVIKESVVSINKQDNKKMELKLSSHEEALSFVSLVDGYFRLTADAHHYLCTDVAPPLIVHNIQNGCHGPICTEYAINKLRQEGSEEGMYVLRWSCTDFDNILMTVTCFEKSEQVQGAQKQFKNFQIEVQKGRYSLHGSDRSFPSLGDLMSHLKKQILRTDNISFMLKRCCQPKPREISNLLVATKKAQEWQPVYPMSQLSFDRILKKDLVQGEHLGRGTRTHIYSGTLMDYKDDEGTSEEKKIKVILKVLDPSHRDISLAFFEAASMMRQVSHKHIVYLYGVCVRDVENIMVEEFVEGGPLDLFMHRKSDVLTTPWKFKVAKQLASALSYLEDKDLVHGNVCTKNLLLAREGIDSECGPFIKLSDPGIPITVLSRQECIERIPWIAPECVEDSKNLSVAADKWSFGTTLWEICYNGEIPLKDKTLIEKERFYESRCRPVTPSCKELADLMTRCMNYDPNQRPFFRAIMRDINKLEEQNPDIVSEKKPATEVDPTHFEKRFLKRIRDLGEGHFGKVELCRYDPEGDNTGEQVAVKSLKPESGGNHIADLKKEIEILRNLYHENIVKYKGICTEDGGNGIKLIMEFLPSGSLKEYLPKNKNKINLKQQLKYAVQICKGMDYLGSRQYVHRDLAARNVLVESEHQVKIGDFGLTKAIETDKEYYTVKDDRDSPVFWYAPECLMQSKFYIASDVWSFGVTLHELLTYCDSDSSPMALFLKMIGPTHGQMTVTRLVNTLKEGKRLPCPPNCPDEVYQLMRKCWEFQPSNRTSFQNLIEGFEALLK

JAK3 = JAK3 (Homo sapiens, UniProt P52333)
Kit = Kit (Homo sapiens, UniProt P10721)
MAP4K4 = MAP4K4 (Homo sapiens, UniProt O95819)
MARK4 = MARK4 (Homo sapiens, UniProt Q96L34)
MST2 = target: T8, MST2 (Homo sapiens, UniProt Q13188)
T8 construct: gene STK3
T8 sequence (Q13188 whole entry): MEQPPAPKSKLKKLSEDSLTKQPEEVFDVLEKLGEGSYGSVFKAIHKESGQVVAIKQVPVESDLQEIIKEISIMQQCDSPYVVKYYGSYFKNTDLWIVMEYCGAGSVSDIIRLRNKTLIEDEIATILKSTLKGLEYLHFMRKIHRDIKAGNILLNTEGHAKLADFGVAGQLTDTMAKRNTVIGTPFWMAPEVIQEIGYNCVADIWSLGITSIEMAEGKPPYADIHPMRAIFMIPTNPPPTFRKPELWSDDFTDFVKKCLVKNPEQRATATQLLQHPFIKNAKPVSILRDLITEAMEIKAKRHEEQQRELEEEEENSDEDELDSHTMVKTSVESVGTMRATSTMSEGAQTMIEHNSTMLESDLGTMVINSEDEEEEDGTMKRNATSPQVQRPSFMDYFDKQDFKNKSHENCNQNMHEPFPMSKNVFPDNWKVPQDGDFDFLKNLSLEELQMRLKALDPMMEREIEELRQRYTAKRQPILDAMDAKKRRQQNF

NIM1 = target: T9, NIM1 (Homo sapiens, UniProt Q8IY84)
T9 construct: gene NIM1K

PAK3 = PAK3 (Homo sapiens, UniProt O75914)
Chain of PAK3 (O75914 whole entry): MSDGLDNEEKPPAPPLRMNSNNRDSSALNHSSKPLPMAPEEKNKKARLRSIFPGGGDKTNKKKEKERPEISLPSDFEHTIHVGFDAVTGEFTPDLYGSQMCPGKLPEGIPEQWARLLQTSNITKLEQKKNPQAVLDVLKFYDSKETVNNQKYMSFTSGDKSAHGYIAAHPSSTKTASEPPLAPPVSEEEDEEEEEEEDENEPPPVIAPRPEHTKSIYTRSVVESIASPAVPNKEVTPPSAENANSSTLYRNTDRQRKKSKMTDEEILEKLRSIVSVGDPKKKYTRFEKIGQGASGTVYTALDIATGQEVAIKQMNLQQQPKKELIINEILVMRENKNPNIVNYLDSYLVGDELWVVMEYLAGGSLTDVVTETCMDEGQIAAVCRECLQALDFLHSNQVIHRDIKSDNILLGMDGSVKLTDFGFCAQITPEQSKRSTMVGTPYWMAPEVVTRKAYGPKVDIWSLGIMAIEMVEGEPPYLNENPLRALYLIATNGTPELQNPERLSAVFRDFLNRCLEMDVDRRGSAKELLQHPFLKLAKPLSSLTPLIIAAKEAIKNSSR

PAK4 = PAK4 (Homo sapiens, UniProt O96013)
PKC_alpha = target: T10, PKC_alpha (Homo sapiens, UniProt P17252)
T10 construct: gene PRKCA

PKC_epsilon = target: T11, PKC_epsilon (Homo sapiens, UniProt Q02156)
T11 construct: gene PRKCE

PKC_gamma = target: T12, PKC_gamma (Homo sapiens, UniProt P05129)
T12 construct: gene PRKCG

PKG2 = target: T13, PKG2 (Homo sapiens, UniProt Q13237)
T13 construct: gene PRKG2

PRAK = target: T14, PRAK (Homo sapiens, UniProt Q8IW41)
T14 construct: gene MAPKAPK5
T14 sequence (Q8IW41 whole entry): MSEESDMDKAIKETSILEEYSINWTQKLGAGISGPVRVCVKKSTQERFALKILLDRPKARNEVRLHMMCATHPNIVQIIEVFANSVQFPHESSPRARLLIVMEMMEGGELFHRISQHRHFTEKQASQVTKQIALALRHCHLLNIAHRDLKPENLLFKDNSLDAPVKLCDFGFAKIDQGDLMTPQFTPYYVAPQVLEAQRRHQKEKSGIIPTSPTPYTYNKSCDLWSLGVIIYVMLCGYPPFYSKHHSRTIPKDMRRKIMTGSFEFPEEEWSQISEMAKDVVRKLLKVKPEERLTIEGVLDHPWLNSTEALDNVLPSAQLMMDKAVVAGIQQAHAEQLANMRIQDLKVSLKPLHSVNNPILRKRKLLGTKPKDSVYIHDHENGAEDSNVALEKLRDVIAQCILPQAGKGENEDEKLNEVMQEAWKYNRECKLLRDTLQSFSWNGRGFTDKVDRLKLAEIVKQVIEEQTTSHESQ

PhK_gamma2 = target: T15, PhK_gamma2 (Homo sapiens, UniProt P15735)
T15 construct: gene PHKG2

RSK1 = target: T16, RSK1 (Homo sapiens, UniProt Q15418)
T16 construct: gene RPS6KA1

RSK4 = target: T17, RSK4 (Homo sapiens, UniProt Q9UK32)
T17 construct: gene RPS6KA6
T17 sequence (Q9UK32 whole entry): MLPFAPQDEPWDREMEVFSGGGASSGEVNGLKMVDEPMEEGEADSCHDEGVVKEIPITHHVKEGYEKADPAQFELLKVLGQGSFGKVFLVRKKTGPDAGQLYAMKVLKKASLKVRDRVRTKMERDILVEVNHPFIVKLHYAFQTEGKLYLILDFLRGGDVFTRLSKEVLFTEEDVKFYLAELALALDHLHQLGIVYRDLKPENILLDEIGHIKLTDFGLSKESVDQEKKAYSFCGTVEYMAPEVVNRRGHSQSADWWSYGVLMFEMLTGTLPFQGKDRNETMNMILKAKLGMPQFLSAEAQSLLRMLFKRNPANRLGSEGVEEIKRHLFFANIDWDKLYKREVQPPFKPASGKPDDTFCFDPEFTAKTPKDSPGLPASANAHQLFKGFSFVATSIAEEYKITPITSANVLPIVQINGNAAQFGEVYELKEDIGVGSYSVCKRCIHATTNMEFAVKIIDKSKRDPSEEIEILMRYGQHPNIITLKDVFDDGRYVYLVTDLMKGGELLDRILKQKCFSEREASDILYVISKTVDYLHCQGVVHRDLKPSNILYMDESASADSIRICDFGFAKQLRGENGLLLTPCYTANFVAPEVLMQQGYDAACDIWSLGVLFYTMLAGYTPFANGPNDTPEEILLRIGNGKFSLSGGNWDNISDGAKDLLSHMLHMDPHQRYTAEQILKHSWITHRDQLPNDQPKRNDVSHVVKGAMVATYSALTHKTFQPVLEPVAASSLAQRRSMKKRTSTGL

SGK3 = SGK3 (Homo sapiens, UniProt Q96BR1)
Chain of SGK3 (Q96BR1 whole entry): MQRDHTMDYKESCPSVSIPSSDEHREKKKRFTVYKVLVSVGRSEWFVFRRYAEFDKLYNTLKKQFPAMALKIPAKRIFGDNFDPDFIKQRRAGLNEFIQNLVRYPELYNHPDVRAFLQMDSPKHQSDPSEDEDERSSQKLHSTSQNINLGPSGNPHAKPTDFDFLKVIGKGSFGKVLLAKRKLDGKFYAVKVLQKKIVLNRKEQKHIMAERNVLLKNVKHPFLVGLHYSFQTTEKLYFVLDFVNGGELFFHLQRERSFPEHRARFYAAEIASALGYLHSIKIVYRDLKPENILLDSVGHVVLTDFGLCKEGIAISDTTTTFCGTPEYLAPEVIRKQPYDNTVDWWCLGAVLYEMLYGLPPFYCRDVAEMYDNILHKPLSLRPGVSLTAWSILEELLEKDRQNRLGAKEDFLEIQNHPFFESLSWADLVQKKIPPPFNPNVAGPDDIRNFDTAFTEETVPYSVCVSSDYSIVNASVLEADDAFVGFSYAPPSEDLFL

SIK2 = SIK2 (Homo sapiens, UniProt Q9H0K1)
YSK4 = target: T18, YSK4 (Homo sapiens, UniProt Q56UN5)
T18 construct: gene MAP3K19

eEF-2K = target: T19, eEF-2K (Homo sapiens, UniProt O00418)
T19 construct: gene EEF2K

- inhibition (ACVR1B): -5%
- inhibition (CDK2/cyclinA): 4.5%
- inhibition (CDK5/p35): 3.5%
- inhibition (CDKL5): 8.5%
- inhibition (CK1_gamma2): -5%
- inhibition (CK2_alpha2): 6.5%
- inhibition (CSF1R): 10.5%
- inhibition (DNA-PK): 11.5%
- inhibition (DYRK1A): 9.5%
- inhibition (EphB2): 12%
- inhibition (FAK): 7.5%
- inhibition (FAK2): 4%
- inhibition (FGFR1): 4%
- inhibition (FGFR4): 6%
- inhibition (Fer): 12.5%
- inhibition (GCK): 6.5%
- inhibition (IGF1R): 5%
- inhibition (JAK1): 0%
- inhibition (JAK3): 2%
- inhibition (Kit): -1.5%
- inhibition (MAP4K4): -0.5%
- inhibition (MARK4): 3.5%
- inhibition (MST2): 6%
- inhibition (NIM1): 8.5%
- inhibition (PAK3): 12%
- inhibition (PAK4): 5.5%
- inhibition (PKC_alpha): 13.5%
- inhibition (PKC_epsilon): 16%
- inhibition (PKC_gamma): 8%
- inhibition (PKG2): -11%
- inhibition (PRAK): 3.5%
- inhibition (PhK_gamma2): -0.5%
- inhibition (RSK1): 14.5%
- inhibition (RSK4): 2.5%
- inhibition (SGK3): 2%
- inhibition (SIK2): 9.5%
- inhibition (YSK4): 1%
- inhibition (eEF-2K): 7%
Structure (SMILES): CC(C)(O)CC(=O)NCCn1ccc2ncnc(Nc3ccc(Oc4cccc(C(F)(F)F)c4)c(Cl)c3)c21 [TAK-285]
